Experimental data from US9057727B2, “Screening methods using G-protein coupled receptors and related compositions” (The General Hospital Corporation, priority 2007, dated 2015).
Where two headings read alike, the source gives them in different places. Peptide text beside a SMILES is read from it.

Experiments:
[1] = target: T1, hPTH1R (R0 form of the human PTH receptor) (Homo sapiens, UniProt Q03431); assay: R0 memb: hPTH1R*PTH( 1-34)+GTPgS
T1 construct: expressed in transfected cells; host or cells: COS-7, transient (Fugene-6)

[2] = Serum and urinary calcium and phosphate in TPTX rats; format: in vivo
Description: Five-week-old male Crl:CD(SD) rats were obtained from Charles River Laboratories Japan, Inc. (Kanagawa, Japan) and acclimated for 1 week under standard laboratory conditions at 20-26° C. and 35-75% humidity. The rats received free access to tap water and standard rodent chow (CE-2) containing 1.1% calcium, 1.0% phosphate and 250 IU/100 g of vitamin D3 (Clea Japan, Inc., Shizuoka, Japan).
Thyroparathyroidectomy (TPTX) was performed on six-week-old rats. TPTX rats were selected for use based on serum ionized calcium (iCa) levels (<1.0 mM) in samples taken from tail vein bleeding at 24 hours or […] after the operation using the electrode method. The TPTX rats were divided into six groups of five animals based on iCa levels at 48 hours after the operation. TPTX-vehicle group intravenously received the vehicle alone (10 mM acetic acid solution) at a dose of 1 ml/kg body weight administered to the tail vein.
Blood was obtained from the tail vein for detecting iCa at 1, 2, 4, 6, and 24 hours after each injection. Ionized calcium levels were determined by the electrode method using an autoanalyzer (M-634, Chiba Corning Diagnostics Co. Ltd., Tokyo, Japan).
We also studied the effects of the M-PTH(1-14)/PTHrP(15-36) hybrid peptide (SP-PTH) on serum and urinary calcium and phosphate.

[3] = Calcemic action in normal rats (blood ionized calcium); format: in vivo
How it was run: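 Female SD-IGS rats, 8 weeks old, dosed intravenously at 1 ml/kg with peptides in PC-buffer (pH 5.0), 6 per group. Tail-vein blood ionized calcium corrected to pH 7.4 at baseline and 1, 2, 4, 6 h. Time course versus vehicle as mean ± SE.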

[4] = target: hPTH1R (RG form of the human PTH receptor); assay: RG memb: hPTH1R+dnGS *M-PTH(1-15)
[5] = target: T2, ROS 17/2.8 cells (endogenous rat PTHR) (Rattus norvegicus, UniProt P25961); assay: Delayed cAMP response in ROS 17/2.8 cells; format: cell-based
T2 construct: the rat osteoblastic cell line ROS17/2.8, which endogenously expresses the rat PTHR; endogenous in cells; host or cells: ROS 17/2.8 rat osteosarcoma cells (membranes or intact cells)
T2 sequence (P25961 27-591): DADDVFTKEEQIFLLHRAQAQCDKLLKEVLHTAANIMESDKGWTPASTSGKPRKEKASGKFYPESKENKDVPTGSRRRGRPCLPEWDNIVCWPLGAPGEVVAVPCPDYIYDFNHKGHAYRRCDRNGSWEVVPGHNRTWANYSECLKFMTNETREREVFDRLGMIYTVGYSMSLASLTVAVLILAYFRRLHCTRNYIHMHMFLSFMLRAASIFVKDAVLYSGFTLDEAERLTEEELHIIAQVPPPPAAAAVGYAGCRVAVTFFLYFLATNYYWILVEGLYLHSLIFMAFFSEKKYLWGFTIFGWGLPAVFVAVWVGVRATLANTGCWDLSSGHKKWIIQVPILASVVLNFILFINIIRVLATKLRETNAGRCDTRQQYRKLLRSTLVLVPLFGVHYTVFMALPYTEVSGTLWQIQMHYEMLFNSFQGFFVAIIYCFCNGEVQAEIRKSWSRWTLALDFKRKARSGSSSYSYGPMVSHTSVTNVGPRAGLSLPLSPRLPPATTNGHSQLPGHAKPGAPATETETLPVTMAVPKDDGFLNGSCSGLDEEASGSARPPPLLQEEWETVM
Description: The analogs used were [E^19],Mc-hPTH(1-34)OH (SEQ ID NO:21) and [A^23,E^19],Mc-hPTH(1-34)OH (SEQ ID NO:28) (Mc=Ala^1,3,12,Gln^10,Arg^11,Trp^14, Arg^19).
The data in FIG. 21B are expressed as a percent of the maximum response observed for each ligand, determined by incubating the cells with ligand in the presence of IBMX for 10 minutes (no ligand wash-out). These values were 67±6; 68±3; and 71±1 pmole/well, respectively. The basal (vehicle) cAMP value was 3.7±0.4 pmole/well.
Following treatment of cells with a ligand, the intracellular cAMP levels were measured by radioimmuno assay, as described (Shimizu et al., J. Biol. Chem. 276:49003-49012 (2001)). The capacities of ligands to produce a delayed cAMP response in cells after a brief exposure to the ligand was assessed as follows. […]

[6] = target: T3, human PTHR, G protein-uncoupled conformation (R^0) (Homo sapiens, UniProt Q03431); assay: Competition binding to R0 conformation of hPTHR (COS-7 membranes, GTPγS, 125I-PTH(1-34) tracer); settings: Table 2
T3 construct: expressed in transfected cells; host or cells: COS-7, transient (Fugene-6)
T3 sequence (Q03431 27-593): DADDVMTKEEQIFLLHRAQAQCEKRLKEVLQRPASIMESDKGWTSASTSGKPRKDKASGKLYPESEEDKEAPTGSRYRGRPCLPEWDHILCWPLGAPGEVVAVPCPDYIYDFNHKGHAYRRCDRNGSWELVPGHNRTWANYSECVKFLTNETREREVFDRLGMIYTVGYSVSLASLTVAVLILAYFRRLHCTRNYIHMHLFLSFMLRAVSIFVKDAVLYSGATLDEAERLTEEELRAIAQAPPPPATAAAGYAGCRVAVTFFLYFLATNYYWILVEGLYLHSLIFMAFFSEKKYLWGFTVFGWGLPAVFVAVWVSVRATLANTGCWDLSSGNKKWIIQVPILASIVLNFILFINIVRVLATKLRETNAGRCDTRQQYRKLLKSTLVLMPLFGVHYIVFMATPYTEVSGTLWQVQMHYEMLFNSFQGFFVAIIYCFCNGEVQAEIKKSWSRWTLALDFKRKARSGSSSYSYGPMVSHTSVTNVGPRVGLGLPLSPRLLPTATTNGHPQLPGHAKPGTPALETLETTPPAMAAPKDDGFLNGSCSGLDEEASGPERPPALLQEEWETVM
How it was run: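 Membranes from hPTHR-transfected COS-7 cells (20-100 μg/mL protein) incubated 90 min with radioligand (~150,000 cpm/ml) and unlabeled ligands, then filtered. Specific binding expressed as % of binding without competitor.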

SaOS cells = assay: cAMP production in SaOS cells, dose-response; format: cell-based
[7] = test system: LLCPK1-B64 cells or SaOS-2 cells; assay: cAMP screen of substituted PTHrP(1-28) analogs (% parent); format: cell-based; settings: parent PTHrP(1-28)NH
How it was run: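 LLCPK1-B64 or SaOS-2 cells exposed to peptide analogs at 3×10^−9M with IBMX for 30 minutes at room temperature, then cAMP measured. Each analog's response expressed as percentage of that for parent PTHrP(1-28).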

[8] = target: T4, human PTHR, G protein-coupled conformation (RG) (Homo sapiens, UniProt Q03431); assay: Competition binding to RG conformation of hPTHR (COS-7 membranes, GαsND, 125I-[Aib1,3,M]PTH(1-15) tracer); settings: Table 2; read-out: RG binding affinity hPTHR IC50
T4 construct: expressed in transfected cells; host or cells: COS-7, transient (Fugene-6); membranes
T4 sequence (Q03431 27-593): T3 sequence (Q03431 27-593)

[9] = Plasma cAMP in C57BL/6 mice after intravenous injection; format: in vivo; settings: i.v. (Example 4)
Description: Blood was withdrawn 10 minutes after injection, and the plasma level of cAMP was measured by RIA.
Blood was withdrawn 10 minutes after injection and plasma level of cAMP was measured by RIA.
In the cAMP experiment (FIG. 29A), blood was withdrawn 10 minutes after injection and plasma level of cAMP was measured by RIA.

MC3T3-E1 cells = assay: cAMP in MC3T3-E1 cells, dose-response; format: cell-based; settings: Table 2; read-out: MC3T3-E1 cAMP EC50
Description: In the 1-30 scaffold, Gly, Ser, Leu, Asn, Gln, Trp, Glu, and Lys were substituted at position 29; Gly, Ser, Leu, Asn, Asp, Trp, and Lys were substituted at position 30; and Ser, Leu, Asn, Val, Trp, Glu, and Lys were substituted at position 31. […] These peptides were tested for cAMP activity in MC3T3-E1 cells.

| SMILES | IC50 [1] [nM] | duration of calcemic / sCa and sPi effect, in words [2] | duration of calcemic / sCa and sPi effect, in words ([2]; listed as SP-PTH) | serum calcium (sCa) and serum phosphorus (sPi), in words ([2]; single i.v. 1.25 nmol/kg) | urinary calcium 0-6 hours, in words ([2]; single i.v. 1.25 nmol/kg) | urinary phosphate 0-6 hours, in words ([2]; single i.v. 1.25 nmol/kg) | calcemic action compared with control peptides, in words ([3]; normal and TPTX rats) | calcemic action (blood ionized calcium), in words ([3]; normal rats, i.v.) | IC50 [4] [nM] | duration of cAMP signaling, in words [5] | R0/RG selectivity ([6]; hPTHR) | IC50 ([6]; read-out: R^0 binding affinity hPTHR IC50) [nM] | cAMP-inducing activity compared with parent, in words (SaOS cells) | EC50 (SaOS cells; Table 2, read-out: SaOS camp EC50) [nM] | EC50 (SaOS cells; Table 3, read-out: dose-response cAMP in SaOS (EC50)) [nM] | screen cAMP (% parent) [7] [% parent] | IC50 [8] [nM] | plasma cAMP 10 minutes after injection, in words [9] | EC50 (MC3T3-E1 cells) [nM] |
| --- | --- | --- | --- | --- | --- | --- | --- | --- | --- | --- | --- | --- | --- | --- | --- | --- | --- | --- | --- |
| CC[C@H](C)[C@H](NC(=O)[C@H](CCC(=O)O)NC(=O)[C@H](C)NC(=O)[C@@H](NC(=O)[C@H](Cc1c[nH]cn1)NC(=O)[C@@H](NC(=O)[C@H](CCC(=O)O)NC(=O)[C@H](C)NC(=O)[C@@H](NC(=O)[C@H](CC(C)C)NC(=O)[C@H](Cc1c[nH]cn1)NC(=O)[C@H](Cc1c[nH]cn1)NC(=O)[C@H](CC(C)C)NC(=O)[C@H](Cc1ccccc1)NC(=O)[C@H](Cc1ccccc1)NC(=O)[C@H](CCCNC(=N)N)NC(=O)[C@H](CCCNC(=N)N)NC(=O)[C@H](CCCNC(=N)N)NC(=O)[C@H](CC(C)C)NC(=O)[C@H](CC(=O)O)NC(=O)[C@H](CCC(N)=O)NC(=O)[C@@H](NC(=O)[C@H](Cc1c[nH]c2ccccc12)NC(=O)[C@H](CCCCN)NC(=O)[C@H](C)NC(=O)[C@H](CCCNC(=N)N)NC(=O)[C@H](CCC(N)=O)NC(=O)[C@H](Cc1c[nH]cn1)NC(=O)[C@H](CCSC)NC(=O)[C@H](CC(C)C)NC(=O)[C@H](CCC(N)=O)NC(=O)[C@@H](NC(=O)[C@H](CCC(=O)O)NC(=O)[C@H](C)NC(=O)[C@@H](NC(=O)[C@H](C)N)C(C)C)[C@@H](C)CC)[C@@H](C)CC)[C@@H](C)CC)[C@@H](C)CC)[C@@H](C)O)C(=O)O [Mc-PTH(1-14)/PTHrP(15-36)] (H-AVAEIQLMHQRAKWIQDLRRRFFLHHLIAEIHTAEI-OH) | 2.7 | prolonged calcemic effects | maintained for 24 hrs | increased sCa and decreased sPi to normal levels within 6 hrs | decreased urinary calcium | increased urinary phosphate level | higher calcemic actions than did PTH(1-34) | Prolonged calcemic effects | 0.67 | prolonged cAMP signaling |  |  |  |  |  |  |  |  |  |
| CC[C@H](C)[C@H](NC(=O)[C@H](CC(C)C)NC(=O)[C@H](CCCCN)NC(=O)[C@H](CC(C)C)NC(=O)[C@H](CC(C)C)NC(=O)[C@H](Cc1ccccc1)NC(=O)[C@H](C)NC(=O)[C@H](CCCNC(=N)N)NC(=O)[C@H](CCCNC(=N)N)NC(=O)[C@H](CCCNC(=N)N)NC(=O)[C@H](CCC(=O)O)NC(=O)[C@H](CC(=O)O)NC(=O)[C@H](CCC(N)=O)NC(=O)[C@@H](NC(=O)[C@H](CO)NC(=O)[C@H](CCCCN)NC(=O)CNC(=O)[C@H](CCCCN)NC(=O)[C@H](CC(=O)O)NC(=O)[C@H](Cc1c[nH]cn1)NC(=O)[C@H](CC(C)C)NC(=O)[C@H](CC(C)C)NC(=O)[C@H](CCC(N)=O)NC(=O)[C@H](Cc1c[nH]cn1)NC(=O)[C@H](CCC(=O)O)NC(=O)[C@H](CO)NC(=O)[C@@H](NC(=O)[C@H](C)N)C(C)C)[C@@H](C)CC)C(N)=O [E18, A22, L25, K26-THrP(1-28)NH, E18,A22,L25,K26-PTHrP(1-28)] (H-AVSEHQLLHDKGKSIQDERRRAFLLKLI-NH2; N-terminus assumed) |  |  |  |  |  |  |  |  |  |  | 18317 | 1740 | Marked enhancements of cAMP-inducing activity | 0.01 | 0.01 | 340 | 0.1 | Marked enhancements | 0.083 |
